Measured values from patent US10952999B2, “Inhibitor of cyclin-dependent kinase CDK9” (GENFLEET THERAPEUTICS (SHANGHAI) INC., priority 2017, dated 2021).

What was measured:
[1] = test system: MV4-11 acute granulocyte leukemia cells; experiment: Human acute granulocyte leukemia MV4-11 mouse model, subcutaneous tumor; assay type: in vivo, mice
Method: (§1) 24 Bal b/c female mice, 4-6 weeks, were purchased from Shanghai Slack Laboratory Animals Co., Ltd. and kept in SPF laboratory. The drinking water and padding were aseptically treated by autoclaving. All operations were carried out under aseptic conditions. On day 0, 5×10^6MV4-11 acute granulocyte leukemia cells (purchased from ATCC) were subcutaneously injected into the left side of all mice' back. Starting on day 15, all mice were divided into four groups (6 mice per group), methyl cellulose (HKI) solvent was orally administered to the first group of mice per day; compound 1 at a dose of 10 mg/kg mice body weight was orally administered to the second group of mice per day; compound 1 at a dose of 20 mg/kg mice body weight was orally administered to the third group of mice per day; compound 1 at a dose of 30 mg/kg mice body weight was orally administered to the fourth group of mice per day. From the start of administration, the length/width of the subcutaneous tumor was measured with a vernier caliper every day, and the body weight of the mouse was recorded every day, and the effect of compound 1 on the body weight of the mouse was observed. On day 43, the mice were sacrificed, subcutaneous tumors were taken out, and tumors were weighed and compared, and then a sample of protein lysate was prepared from the tumor sample tissue for use. The trend of subcutaneous tumor growth was counted within day 16 to day 43, and the tumor volume was calculated as: length×width×width/2 mm^3.

[2] = test system: acute myelocytic leukemia cell line (AML) OCI-AML-3; experiment: Effect on apoptosis, Western Blot of PARP and Caspase 3 shear; assay type: cell-based; conditions: OCI-AML-3, 0.01-0.1 μM, 24 hours
From the text: (§2) Western Blot was used to detect the effects of drugs in different concentrations on DNA repair enzyme polyadenylation diphosphate-ribose polymerase PARP and protein shear of cysteine-containing aspartate proteolytic enzyme Caspase 3 at different time intervals.

[3] = test system: acute myelocytic leukemia cell line (AML) HL-60; experiment: as above; assay type: cell-based; conditions: HL-60, 0.01-0.1 μM, 24 hours
From the text: as §2

[4] = test system: acute myelocytic leukemia cell line (AML) MV4-11; experiment: as above; assay type: cell-based; conditions: MV4-11, 0.01-0.1 μM, 24 hours
From the text: as §2

[5] = test system: acute promyelocytic leukemia cell line NB-4; experiment: as above; assay type: cell-based; conditions: NB-4, 0.01-0.1 μM, 24 hours
From the text: as §2

[6] = test system: human non-small cell lung cancer cells, human small cell lung cancer cells, lung adenocarcinoma cells, and breast cancer cells; experiment: Cancer cell growth, cells of cancer type other than hematological cancer as a panel; assay type: cell-based; conditions: lung and breast cancer cells of table 3
From the text: In the examples, we used acute myelocytic leukemia (AML) OCI-AML-3, acute promyelocytic leukemia cell line NB-4, MDS-RAEB (myelodysplastic syndrome-excess blasts type) cell line SKM-1, human leukemia cell Nomo-1, acute myeloid leukemia cell line MOLM14, acute myeloid leukemia cell line MOLM13, acute myeloid leukemia cell line MV4-11, acute myeloid leukemia cell line HL-60, acute myeloid leukemia cell line OCI-AML-2, histiocytic lymphoma U-937, acute B cell leukemia cell line MEC-1, acute B cell leukemia cell line MEC-2, acute megakaryoblastic leukemia CMK, hamster lung cell CHL, hamster ovary cell CHO, human non-small cell lung cancer cell H1975, human non-small cell lung cancer cell H358, human small cell lung cancer cell H209, human lung adenocarcinoma cell H1395, human non-small cell lung cancer cell PC-9, human lung cancer cell H3122, human non-small cell lung cancer cell H2122, human non-small cell lung cancer cell H1915, human lung adenocarcinoma cell H1355, human non-small cell lung cancer cell HCC827, human breast cancer cell MDA-MB-231, human breast cancer cell MDA-MB-468, human breast cancer cell MCF-7, human breast cancer cell T47D, human breast cancer cell SK-Br-3, the above cells were purchased from ATCC. […]

[7] = test system: acute myelocytic leukemia cell line (AML) HL-60; experiment: Effect on cell cycle distribution, PI staining, flow cytometry; assay type: cell-based; conditions: HL-60, 0.01-0.1 μM, 12, 24 or 48 hours
Method: (§3) In order to study in which cycle the cells were prevented after administration, in the three cell lines, acute promyelocytic leukemia cell line NB-4, acute myelocytic leukemia cell line (AML) HL-60, and acute myelocytic leukemia cell line (AML) MV4-11, the effects of compound 1 on the cell cycle distribution of these cell lines were tested. […] The cell cycle distribution was measured by flow cytometry (BD FACS Calibur).

[8] = test system: acute myelocytic leukemia cell line (AML) MV4-11; experiment: as above; assay type: cell-based; conditions: MV4-11, 0.01-0.1 μM, 12, 24 or 48 hours
Method: as §3

[9] = test system: acute promyelocytic leukemia cell line NB-4; experiment: as above; assay type: cell-based; conditions: NB-4, 0.01-0.1 μM, 12, 24 or 48 hours
Method: as §3

[10] = Body weight of mice in the MV4-11 mouse model; assay type: in vivo; conditions: orally per day, Bal b/c mice
Method: as §1, with “On day 43, the mice were sacrificed, subcutaneous tumors were taken out, and tumors were weighed and compared, and then a sample of protein lysate was prepared from the tumor sample tissue for use.” left out

[11] = test system: phosphorylation of RNAPII, MCL-1, and c-MYC in HL-60; experiment: Effect on signaling pathway downstream of CDK9; assay type: cell-based; conditions: HL-60, 0.03-3 μM, 2 hours
Method: (§4) Against four cells, acute myelocytic leukemia cell line (AML) OCI-AML-3, acute promyelocytic leukemia cell line NB-4, acute myelocytic leukemia cell line (AML) HL-60 and acute myelocytic leukemia cell line (AML) MV4-11 (all purchased from ATCC), by measuring the biochemical endpoints and functional endpoints of multiple cells, the effect of compound 1 was evaluated on CDK9 in cells and other protein kinases related to its signaling pathway, such as RNAPII, XIAP, MCL-1, c-MYC, BCL-2 and so on. […] The effect of Compound 1 on the phosphorylation of CDK9, RNAPII, XIAP, MCL-1, c-MYC, BCL-2 in these cell lines was determined (FIG. 1a-d).

[12] = test system: phosphorylation of RNAPII, MCL-1, and c-MYC in OCI-AML-3; experiment: Effect on signaling pathway downstream of CDK9; assay type: cell-based; conditions: OCI-AML-3, 0.03-3 μM, 2 hours
Method: as §4

[13] = test system: phosphorylation of RNAPII, MCL-1, and c-MYC in NB-4; experiment: Effect on signaling pathway downstream of CDK9; assay type: cell-based; conditions: NB-4, 0.03-3 μM, 2 hours
Method: as §4

[14] = test system: phosphorylation of RNAPII, MCL-1, and c-MYC in MV4-11; experiment: Effect on signaling pathway downstream of CDK9; assay type: cell-based; conditions: MV4-11, 0.03-3 μM, 2 hours
Method: as §4

COC[C@@H](C)N[C@H]1CC[C@H](Nc2cc(-c3csc(NCC4(C#N)CCOCC4)n3)c(Cl)cn2)CC1 [Compound 1, 4-(((4-(5-chloro-2-(((1R,4r)-4-(((R)-1-methoxypropyl-2-yl)amino)cyclohexyl)amino)pyridin-4-yl)thiazol-2-yl)amino)methyl)tetrahydro-2H-pyran-4-carbonitrile]
growth of subcutaneous tumors (in words) ([1]; 10, 20, 30 mg/kg orally per day, Bal b/c mice): effective in inhibiting the growth of subcutaneous tumors | tumor growth inhibition (TGI) ([1]; high dose group (20, 30 mg/kg), orally per day, day 15 to day 43, Bal b/c mice): 98.7% | weight of the subcutaneous tumor ([1]; low dose group (10 mg/kg), orally per day, Bal b/c mice): significantly reduced | apoptosis (shear of PARP or Caspase 3) [2]: could cause apoptosis | apoptosis (shear of PARP or Caspase 3) [3]: could cause apoptosis | apoptosis (shear of PARP or Caspase 3) [4]: could cause apoptosis | apoptosis (shear of PARP or Caspase 3) [5]: could cause apoptosis | inhibitory effects on cancer cells tested (in words) [6]: significant inhibitory effects | effect on the cell cycle [7]: blocked the cells in G0-G1 phase | effect on the cell cycle [8]: blocked the cells in G0-G1 phase | effect on the cell cycle [9]: blocked the cells in G0-G1 phase | effect on the body weight of mice ([10]; high dose group (20, 30 mg/kg)): affected the body weight | effect on the body weight of mice ([10]; low dose group (10 mg/kg)): no significant effect | effect on the phosphorylation of RNAPII, MCL-1, and c-MYC directly downstream of CDK9 protein [11]: significant inhibitory effect | effect on the phosphorylation of RNAPII, MCL-1, and c-MYC directly downstream of CDK9 protein [12]: significant inhibitory effect | effect on the phosphorylation of RNAPII, MCL-1, and c-MYC directly downstream of CDK9 protein [13]: significant inhibitory effect | effect on the phosphorylation of RNAPII, MCL-1, and c-MYC directly downstream of CDK9 protein [14]: significant inhibitory effect
